# Measurements: ChEMBL document CHEMBL1201861, “Genomics of Drug Sensitity in Cancer screening data, Wellcome Trust Sanger Institute”
# Experiments:
# Assay in all cases: cells
# MMAC-SF = type: functional, cell-based, Homo sapiens; details: Homo sapiens, MMAC-SF;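 also: growth inhibition of human MMAC-SF cells, read out with a cell viability assay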
# Description: SANGER: Inhibition of human MMAC-SF cell growth in a cell viability assay.
# OE19 = type: functional, cell-based, Homo sapiens; details: Homo sapiens, OE19;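 also: growth inhibition of OE19 cells, measured through a cell viability read-out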
# Description: SANGER: Inhibition of human OE19 cell growth in a cell viability assay.
# NB10 = type: functional, cell-based, Homo sapiens; details: Homo sapiens, NB10;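 also: growth inhibition of NB10 cells, read out by a cell viability assay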
# Description: SANGER: Inhibition of human NB10 cell growth in a cell viability assay.
# P30-OHK = type: functional, cell-based; details: Homo sapiens;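 also: growth inhibition of the P30-OHK cell line, read out with a cell viability assay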
# Description: SANGER: Inhibition of human P30-OHK cell growth in a cell viability assay.
# ES3 = type: functional, cell-based, Homo sapiens; details: Homo sapiens, ES3;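 also: growth inhibition of ES3 cells, read out with a cell viability assay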
# Description: SANGER: Inhibition of human ES3 cell growth in a cell viability assay.
# UMC-11 = type: functional, cell-based, Homo sapiens; details: Homo sapiens, UMC-11;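 also: growth inhibition of UMC-11 cells, read out with a cell viability assay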
# Description: SANGER: Inhibition of human UMC-11 cell growth in a cell viability assay.
# U-87 MG = type: functional, cell-based, U-87MG ATCC; details: Homo sapiens;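 also: growth inhibition of the cells measured with a viability assay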
# Description: SANGER: Inhibition of human U-87-MG cell growth in a cell viability assay.
# NCI-H1581 = type: functional, cell-based, Homo sapiens; details: Homo sapiens, NCI-H1581;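 also: cell growth inhibition read out by a viability assay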
# Description: SANGER: Inhibition of human NCI-H1581 cell growth in a cell viability assay.
# PANC-03-27 = type: functional, cell-based, Homo sapiens; details: Homo sapiens, PANC-03-27
# Description: SANGER: Inhibition of human PANC-03-27 cell growth in a cell viability assay.
# BHY = type: functional, cell-based, Homo sapiens; details: Homo sapiens, BHY;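 also: cell growth inhibition read out by a viability assay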
# Description: SANGER: Inhibition of human BHY cell growth in a cell viability assay.
# D-502MG = type: functional, cell-based, Homo sapiens; details: Homo sapiens, D-502MG
# Description: SANGER: Inhibition of human D-502MG cell growth in a cell viability assay.
# DMS-79 = type: functional, cell-based; details: Homo sapiens;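 also: growth inhibition measured with a cell viability assay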
# Description: SANGER: Inhibition of human DMS-79 cell growth in a cell viability assay.
# NCI-H1437 = type: functional, cell-based, Homo sapiens; details: Homo sapiens, NCI-H1437;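 also: growth inhibition of human NCI-H1437 cells, read out by a cell viability assay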
# Description: SANGER: Inhibition of human NCI-H1437 cell growth in a cell viability assay.
# SW1463 = type: functional, cell-based, Homo sapiens; details: Homo sapiens, SW1463;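 also: growth inhibition of SW1463 cells, determined with a cell viability assay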
# Description: SANGER: Inhibition of human SW1463 cell growth in a cell viability assay.
# M14 = type: functional, cell-based, Homo sapiens; details: Homo sapiens, M14;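 also: growth inhibition of M14 cells, read out with a cell viability assay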
# Description: SANGER: Inhibition of human M14 cell growth in a cell viability assay.
# HH = type: functional, cell-based; details: Homo sapiens
# Description: SANGER: Inhibition of human HH cell growth in a cell viability assay.
# EM-2 = type: functional, cell-based; details: Homo sapiens;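 also: growth inhibition of EM-2 cells, read out with a cell viability assay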
# Description: SANGER: Inhibition of human EM-2 cell growth in a cell viability assay.
# U-251 = type: functional, cell-based, Homo sapiens; details: Homo sapiens, U-251;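 also: growth inhibition of human U-251 cells, read out through a cell viability assay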
# Description: SANGER: Inhibition of human U251 cell growth in a cell viability assay.
# C2BBe1 = type: functional, cell-based, Homo sapiens; details: Homo sapiens, C2BBe1;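 also: growth inhibition of C2BBe1 cells, read out through a viability assay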
# Description: SANGER: Inhibition of human C2BBe1 cell growth in a cell viability assay.
# DMS-114 = type: functional, cell-based, Homo sapiens; details: Homo sapiens, DMS-114
# NCI-H2170 = type: functional, cell-based, Homo sapiens; details: Homo sapiens, NCI-H2170;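 also: cell viability assay measuring growth inhibition of human NCI-H2170 cancer cells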
# Description: SANGER: Inhibition of human NCI-H2170 cell growth in a cell viability assay.
# BXPC-3 = type: functional, cell-based, Homo sapiens; details: Homo sapiens, BXPC-3;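 also: growth inhibition of human BxPC-3 cells, read out by a cell viability assay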
# Description: SANGER: Inhibition of human BxPC-3 cell growth in a cell viability assay.
# LB831-BLC = type: functional, cell-based, Homo sapiens; details: Homo sapiens, LB831-BLC;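 also: growth inhibition of LB831-BLC cells, read out with a cell viability assay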
# Description: SANGER: Inhibition of human LB831-BLC cell growth in a cell viability assay.
# AM-38 = type: functional, cell-based, Homo sapiens; details: Homo sapiens, AM-38;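 also: growth inhibition of AM-38 cells of human origin, read out by a cell viability assay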
# Description: SANGER: Inhibition of human AM-38 cell growth in a cell viability assay.
# NB13 = type: functional, cell-based, Homo sapiens; details: Homo sapiens, NB13;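 also: cell viability readout measuring growth inhibition of human NB13 cells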
# Description: SANGER: Inhibition of human NB13 cell growth in a cell viability assay.
# KY821 = type: functional, cell-based; details: Homo sapiens;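 also: growth inhibition of human KY821 cells, read out by a cell viability assay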
# Description: SANGER: Inhibition of human KY821 cell growth in a cell viability assay.
# NEC8 = type: functional, cell-based, Homo sapiens; details: Homo sapiens, NEC8;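 also: growth inhibition of human NEC8 cells, read out by a cell viability assay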
# Description: SANGER: Inhibition of human NEC8 cell growth in a cell viability assay.
# EW-3 = type: functional, cell-based; details: Homo sapiens;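 also: cell viability assay read-out, IC50 reflects inhibition of growth of the EW-3 cells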
# Description: SANGER: Inhibition of human EW-3 cell growth in a cell viability assay.
# NCI-H1092 = type: functional, cell-based; details: Homo sapiens;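 also: cell growth inhibition measured with a cell viability assay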
# Description: SANGER: Inhibition of human NCI-H1092 cell growth in a cell viability assay.
# MLMA = type: functional, cell-based, Homo sapiens; details: Homo sapiens, MLMA;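 also: growth inhibition of MLMA cells (human), determined through a cell viability readout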
# Description: SANGER: Inhibition of human MLMA cell growth in a cell viability assay.
# SCC-4 = type: functional, cell-based, Homo sapiens; details: Homo sapiens, SCC-4;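 also: growth inhibition of human SCC-4 cells, read out as cell viability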
# Description: SANGER: Inhibition of human SCC-4 cell growth in a cell viability assay.
# NCI-H209 = type: functional, cell-based; details: Homo sapiens;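 also: growth inhibition of human NCI-H209 cells, measured by a cell viability assay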
# Description: SANGER: Inhibition of human NCI-H209 cell growth in a cell viability assay.
# 697 = type: functional, cell-based; details: Homo sapiens
# Description: SANGER: Inhibition of human 697 cell growth in a cell viability assay.
# NCI-H1155 = type: functional, cell-based; details: Homo sapiens;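 also: cell growth inhibition measured by a viability assay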
# Description: SANGER: Inhibition of human NCI-H1155 cell growth in a cell viability assay.
# G-402 = type: functional, cell-based, Homo sapiens; details: Homo sapiens, G-402
# Description: SANGER: Inhibition of human G-402 cell growth in a cell viability assay.
# COLO-684 = type: functional, cell-based; details: Homo sapiens
# Description: SANGER: Inhibition of human COLO-684 cell growth in a cell viability assay.
# RCM-1 = type: functional, cell-based, Homo sapiens; details: Homo sapiens, RCM-1;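 also: growth inhibition of the RCM-1 line, determined with a cell viability readout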
# Description: SANGER: Inhibition of human RCM-1 cell growth in a cell viability assay.
# Ramos-2G6-4C10 = type: functional, cell-based; details: Homo sapiens;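 also: growth inhibition of the cell line, measured by a cell viability read-out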
# Description: SANGER: Inhibition of human Ramos-2G6-4C10 cell growth in a cell viability assay.
# BT-474 = type: functional, cell-based, Homo sapiens; details: Homo sapiens, BT-474
# Description: SANGER: Inhibition of human BT-474 cell growth in a cell viability assay.
# MDA-MB-175-VII = type: functional, cell-based, Homo sapiens; details: Homo sapiens, MDA-MB-175-VII
# HuTu80 = type: functional, cell-based, Homo sapiens, HUTU-80; details: Homo sapiens, HuTu80;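 also: growth inhibition of HuTu80 human cells, determined with a cell viability readout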
# Description: SANGER: Inhibition of human HUTU-80 cell growth in a cell viability assay.
# HCC1954 = type: functional, cell-based, Homo sapiens; details: Homo sapiens, HCC1954;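 also: growth inhibition of human HCC1954 cells, read out with a cell viability assay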
# Description: SANGER: Inhibition of human HCC1954 cell growth in a cell viability assay.
# Mo = type: functional, cell-based; details: Homo sapiens
# Description: SANGER: Inhibition of human Mo-T cell growth in a cell viability assay.
# LS-1034 = type: functional, cell-based, Homo sapiens; details: Homo sapiens, LS-1034
# Description: SANGER: Inhibition of human LS-1034 cell growth in a cell viability assay.
# MV4-11 = type: functional, cell-based, MV-4-11; details: Homo sapiens;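 also: cell viability readout measuring growth inhibition of human MV-4-11 cells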
# Description: SANGER: Inhibition of human MV-4-11 cell growth in a cell viability assay.
# CWR22R = type: functional, cell-based, Homo sapiens; details: Homo sapiens, 22Rv1;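 also: growth inhibition of 22Rv1 cells, read out with a cell viability assay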
# Description: SANGER: Inhibition of human 22RV1 cell growth in a cell viability assay.
# FaDu = type: functional, cell-based, Homo sapiens; details: Homo sapiens, FaDu;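 also: cell viability readout of growth inhibition in FaDu cells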
# Description: SANGER: Inhibition of human FADU cell growth in a cell viability assay.
# CW-2 = type: functional, cell-based, Homo sapiens; details: Homo sapiens, CW-2;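 also: growth inhibition of CW-2 cells, read out by a cell viability assay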
# Description: SANGER: Inhibition of human CW-2 cell growth in a cell viability assay.
# JEG-3 = type: functional, cell-based, Homo sapiens; details: Homo sapiens, JEG-3;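 also: growth inhibition of human JEG-3 cells, read out with a cell viability assay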
# Description: SANGER: Inhibition of human JEG-3 cell growth in a cell viability assay.
# 8-MG-BA = type: functional, cell-based, Homo sapiens; details: Homo sapiens, 8-MG-BA;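 also: growth inhibition of 8-MG-BA cells, read out with a cell viability assay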
# Description: SANGER: Inhibition of human 8-MG-BA cell growth in a cell viability assay.
# BE-13 = type: functional, cell-based; details: Homo sapiens;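 also: growth inhibition of human BE-13 cells, measured with a cell viability assay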
# Description: SANGER: Inhibition of human BE-13 cell growth in a cell viability assay.
# SNU1 = type: functional, cell-based; details: Homo sapiens;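 also: growth inhibition of human NCI-SNU-1 cells, measured with a cell viability assay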
# Description: SANGER: Inhibition of human NCI-SNU-1 cell growth in a cell viability assay.
# SW-620 = type: functional, cell-based, Homo sapiens; details: Homo sapiens, SW-620;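 also: growth inhibition of human SW-620 cells, measured by a cell viability assay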
# Description: SANGER: Inhibition of human SW620 cell growth in a cell viability assay.
smiles,measurement,setting,value
COc1cc([C@@H]2c3cc4c(cc3[C@@H](O[C@@H]3O[C@@H]5CO[C@@H](C)O[C@H]5[C@H](O)[C@H]3O)[C@H]3COC(=O)[C@H]23)OCO4)cc(OC)c1O [ETOPOSIDE],IC50,MMAC-SF,6880 nM
same,IC50,OE19,> 16000 nM
same,IC50,NB10,16000 nM
same,IC50,P30-OHK,1210 nM
same,IC50,ES3,628 nM
same,IC50,UMC-11,> 16000 nM
same,IC50,U-87 MG,> 16000 nM
same,IC50,NCI-H1581,> 16000 nM
same,IC50,PANC-03-27,1640 nM
same,IC50,BHY,1530 nM
same,IC50,D-502MG,> 16000 nM
same,IC50,DMS-79,> 16000 nM
same,IC50,NCI-H1437,3380 nM
same,IC50,SW1463,> 16000 nM
same,IC50,M14,7950 nM
same,IC50,HH,4440 nM
same,IC50,EM-2,1580 nM
same,IC50,U-251,501 nM
same,IC50,C2BBe1,> 16000 nM
same,IC50,DMS-114,> 16000 nM
same,IC50,NCI-H2170,1850 nM
same,IC50,BXPC-3,> 16000 nM
same,IC50,LB831-BLC,6150 nM
same,IC50,AM-38,3670 nM
same,IC50,NB13,2760 nM
same,IC50,KY821,> 16000 nM
same,IC50,NEC8,539 nM
same,IC50,EW-3,14300 nM
same,IC50,NCI-H1092,> 16000 nM
same,IC50,MLMA,3380 nM
same,IC50,SCC-4,7200 nM
same,IC50,NCI-H209,1210 nM
same,IC50,697,243 nM
same,IC50,NCI-H1155,11000 nM
same,IC50,G-402,898 nM
same,IC50,COLO-684,> 16000 nM
same,IC50,RCM-1,> 16000 nM
same,IC50,Ramos-2G6-4C10,9940 nM
same,IC50,BT-474,> 16000 nM
same,IC50,MDA-MB-175-VII,> 16000 nM
same,IC50,HuTu80,217 nM
same,IC50,HCC1954,10000 nM
same,IC50,Mo,> 16000 nM
same,IC50,LS-1034,> 16000 nM
same,IC50,MV4-11,151 nM
same,IC50,CWR22R,1530 nM
same,IC50,FaDu,1280 nM
same,IC50,CW-2,> 16000 nM
same,IC50,JEG-3,3040 nM
same,IC50,8-MG-BA,46.9 nM
same,IC50,BE-13,504 nM
same,IC50,SNU1,1750 nM
same,IC50,SW-620,384 nM
Cc1cnc(-c2cnc(NCCNc3ccc(C#N)cn3)nc2-c2ccc(Cl)cc2Cl)[nH]1 [LADUVIGLUSIB],IC50,MMAC-SF,> 2560 nM
same,IC50,OE19,> 2560 nM
same,IC50,NB10,> 2560 nM
same,IC50,P30-OHK,> 2560 nM
same,IC50,ES3,> 2560 nM
same,IC50,UMC-11,> 2560 nM
same,IC50,U-87 MG,> 2560 nM
same,IC50,NCI-H1581,> 2560 nM
same,IC50,PANC-03-27,> 2560 nM
same,IC50,BHY,> 2560 nM
same,IC50,D-502MG,> 2560 nM
same,IC50,DMS-79,> 2560 nM
same,IC50,NCI-H1437,> 2560 nM
same,IC50,SW1463,> 2560 nM
same,IC50,M14,> 2560 nM
same,IC50,HH,> 2560 nM
same,IC50,EM-2,> 2560 nM
same,IC50,U-251,> 2560 nM
same,IC50,C2BBe1,> 2560 nM
same,IC50,DMS-114,> 2560 nM
same,IC50,NCI-H2170,> 2560 nM
same,IC50,BXPC-3,> 2560 nM
same,IC50,LB831-BLC,> 2560 nM
same,IC50,AM-38,> 2560 nM
same,IC50,NB13,> 2560 nM
same,IC50,KY821,> 2560 nM
same,IC50,NEC8,> 2560 nM
same,IC50,EW-3,> 2560 nM
same,IC50,NCI-H1092,> 2560 nM
same,IC50,MLMA,> 2560 nM
same,IC50,SCC-4,> 2560 nM
same,IC50,NCI-H209,> 2560 nM
same,IC50,697,> 2560 nM
same,IC50,NCI-H1155,> 2560 nM
same,IC50,G-402,> 2560 nM
same,IC50,COLO-684,> 2560 nM
same,IC50,RCM-1,> 2560 nM
same,IC50,Ramos-2G6-4C10,> 2560 nM
same,IC50,BT-474,> 2560 nM
same,IC50,MDA-MB-175-VII,> 2560 nM
same,IC50,HuTu80,> 2560 nM
same,IC50,HCC1954,> 2560 nM
same,IC50,Mo,> 2560 nM
same,IC50,LS-1034,> 2560 nM
same,IC50,MV4-11,> 2560 nM
same,IC50,CWR22R,> 2560 nM
same,IC50,FaDu,> 2560 nM
same,IC50,CW-2,> 2560 nM
same,IC50,JEG-3,> 2560 nM
same,IC50,8-MG-BA,> 2560 nM
same,IC50,BE-13,> 2560 nM
same,IC50,SNU1,> 2560 nM
same,IC50,SW-620,> 2560 nM
